What was measured:
[1] = Percutaneous absorption and excretion (Experiment 8); settings: after removing the unabsorbed ointment 6 hours after application
[2] = rat, in vivo

For CC(C(=O)O)c1ccc2c(c1)Cc1cccnc1O2 (centres unmarked) [pranoprofen, Pranoprofen], the “half-life of blood level” value [1] was “about 5 hours” and the excretion route [2] was “excreted mainly into urine and feces”.
